Results taken from patent US20090054235A1, “Benzoheterocyclylethylbenzamide derivatives” (priority 2005, published 2009).

Tested on: Pyrenophora teres
Experiment: In vivo test on Pyrenophora teres (preventive spray on barley plants)
Details: barley plants (Express variety), grading 12 days after contamination, in comparison with control plants
Protocol: The active ingredient tested is prepared by potter homogenisation in a concentrated suspension type formulation at 100 g/l. This suspension is then diluted with water to obtain the desired active material concentration.
Barley plants (Express variety) in starter cups, sown on a 50/50 peat soil-pozzolana substrate and grown at 12° C., are treated at the 1-leaf stage (10 cm tall) by spraying with the aqueous suspension described above. Plants, used as controls, are treated with an aqueous solution not containing the active material. After 24 hours, the plants are contaminated by spraying them with an aqueous suspension of Pyrenophora teres spores (12,000 spores per ml). The spores are collected from a 12-day-old culture. The contaminated barley plants are incubated for 24 hours at about 20° C. and at 100% relative humidity, and then for 12 days at 80% relative humidity.
Grading is carried out 12 days after the contamination, in comparison with the control plants.

**Q.** Which protection (dose of 500 ppm) does the source give for `O=C(NCCc1c[nH]c2ccc(Br)cc12)c1ccccc1C(F)F` [N.[2-(5-bromo-1H-indol-3-yl)ethyl]-2-(difluoromethyl)benzamide] here?
**A.** The protection was “no protection at all”.

**Q.** Which protection (dose of 330 ppm) does the source give for `O=C(NCCc1c[nH]c2ccc(Br)cc12)c1ccccc1C(F)(F)F` [N.[2-(5-bromo-1H-indol-3-yl)ethyl]-2-(trifluoromethyl)benzamide] here?
**A.** Its protection is “no protection at all”.

**Q.** For `O=C(NCCc1c[nH]c2ccc(Br)cc12)c1ccccc1Cl` [N.[2-(5-bromo-1H-indol-3-yl)ethyl]-2-chlorobenzamide], which protection (dose of 500 ppm) is on record?
**A.** The protection was “no protection at all”.

**Q.** `O=C(NCCc1c[nH]c2ccc(Br)cc12)c1ccccc1I` [N.[2-(5-bromo-1H-indol-3-yl)ethyl]-2-iodobenzamide] was tested. Which protection (dose of 500 ppm) did it give?
**A.** The protection was “no protection at all”.
